Earlier results, collected in patent US20020054922A1, “Cosmetic composition and method” (priority 2000, published 2002).

System: skin punch biopsy wound
Settings: 25 micrograms estradiol per 24 hours by skin patch

C[C@]12CC[C@@H]3c4ccc(O)cc4CC[C@H]3[C@@H]1CC[C@@H]2O [estrogen, estradiol]
fibronectin levels compared to placebo (day 7): increased fibronectin levels | wound size compared to placebo (day 7, aged men and women): decrease in wound size | collagen levels compared to placebo (days 7 and 80): increased collagen levels
